Measured values taken from US8759095B2, “Diagnostic and therapeutic tools for diseases altering vascular function” (Universiteit Maastricht, priority 2007, dated 2014).

What was measured:
endothelial glycocalyx [1] = test system: endothelial glycocalyx; design: species or system human; settings: in vivo
endothelial glycocalyx [2] = settings: in vivo; cited from earlier work
[3] = test system: endotoxin-induced inflammatory reactions; assay: Clinical symptoms and vital signs after intravenous endotoxin challenge in healthy male volunteers; format: in vivo, human
Description: (§1) Twentyone healthy Caucasian male volunteers were studied. […] Participants had no history of cardiovascular disease. […] All experiments were performed after an overnight fast.

endothelial glycocalyx [4] = assay: Estimation of systemic glycocalyx volume (Dextran 40 distribution volume minus circulating plasma volume) after endotoxin challenge; format: in vivo, human; design: haematocrit values: unit not given here; settings: 4 hours after endotoxin infusion
Description: as §1
Systemic glycocalyx volume was estimated as previously published by subtracting circulating plasma volume from the intravascular distribution volume of the glycocalyx permeable tracer Dextran 40 (Nieuwdorp M et al. 2006. Diabetes 55: 480-6; Suffredini et al. 1999, supra). Circulating plasma volume was calculated with a previously published method (Orth et al. 1998. Anesth Analg 87: 1234-8). The intravascular distribution volume of labelled autologous erythrocytes was used to quantify the circulating blood volume. Blood was drawn and centrifuged at 1,330 rpm for 5 minutes. Subsequently, sodium fluorescein (fluorescein-di-Na 25%, 250 mg/ml, AZUA Pharmacy, Amsterdam, the Netherlands) was added to the erythrocyte fraction for 5 minutes. After careful washing, labelled erythrocytes were resuspended in saline to the initial volume (60 ml) and re-infused. Subsequently, blood was drawn at 4, 5, 6, and 7 minutes after infusion. The fraction of labelled erythrocytes in the total erythrocyte pool was used to estimate the circulating erythrocyte volume (VERY). Pre-injection unlabeled erythrocytes served as negative control. The fraction of labelled erythrocytes in the blood was measured using a FACScan analyzer (FACS Calibur®, Becton Dickinson, Mountain View, USA). At least 100,000 cells were counted. Data were analyzed by Cellquest (Becton Dickinson, San Jose, Calif., USA). Haematocrit (Ht) was measured after centrifugation of heparinized blood in a Hettich-Haematokrit centrifuge at 10,000 rpm during 5 minutes (Hettich, Tuttlingen, Germany). Circulating plasma volume was calculated from VERY and large vessel Ht by the following formula: circulating plasma volume=([1−Ht]×VERY)/Ht.
Dextran 40 (Rheomacrodex; NPBI International, Emmercompascuum, the Netherlands) was used as a probe to estimate total intravascular volume, which includes the glycocalyx compartment. A bolus of 10 ml Dextran 1 (Promiten; NPBI International, Emmer-compascuum, the Netherlands) was injected to attenuate the risk of anaphylactic reactions prior to Dextran 40 infusion. 100 ml Dextran 40 was injected intravenously, followed by repeated blood sampling at 5, 7, 10, 15, 20, and 30 minutes. Dextran 40 concentration was calculated by measuring the increase in glucose concentration in the post infusion samples after hydrolyzation of Dextran 40 glucose polymers (Van Kreel et al. 1998. Clin Chim Acta 275: 71-80). Glucose concentration per time point was assessed in duplicate using the hexokinase method (Gluco-quant, Hitachi 917; Hitachi). To determine the initial intravascular distribution volume of Dextran 40, the concentration of Dextran 40 at the time of injection was estimated by exponential fitting of the measured Dextran 40 concentrations. Exponential time constants (τ [min]) were used to determine Dextran 40 systemic clearance rates (τ^−1 min^−1).

[5] = test system: sublingual microcirculation; assay: Microvascular glycocalyx / capillary density by OPS imaging of the sublingual microcirculation after endotoxin challenge; format: in vivo, human; settings: upon endotoxin challenge; from 59±7 at baseline; p<0.01
Description: as §1
Thickness of endothelial glycocalyx in individual capillary blood vessels was measured by orthogonal polarization spectral (OPS) imaging of the sublingual microcirculation (Cytometrics, Philadelphia, Pa., USA) as previously published (Nieuwdorp et al. 2006, supra; Nieuwdorp et al. 2006. Diabetes 55: 1127-32). In short, the width of flowing erythrocytes was measured in 5 individual capillaries before and immediately after capillary leukocyte passage. In healthy capillaries, the glycocalyx limits capillary blood filling by separating erythrocytes from the luminal endothelial surface, which is known as the red cell exclusion zone. […] Images sized 728×576 pixels were recorded were collected with a 5× objective providing a 325× magnification at a frame rate of 25/second. […] The anatomical capillary diameter and the width of the flowing erythrocyte column were measured using digital calipers prior to and after spontaneous capillary leukocyte passage. Per participant, glycocalyx dimension was determined in at least 5 capillaries. […] In addition as indication of capillary density, the number of capillaries per field was counted.

glycocalyx shedding = assay: Plasma glycocalyx components (hyaluronan, heparan sulphate) and hyaluronidase activity after endotoxin challenge; format: in vivo, human
Description: as §1

[6] = test system: TNFα-induced inflammatory responses; assay: Plasma inflammatory markers (IL-6, CRP) and circulating leukocytes after endotoxin challenge; format: in vivo, human
Description: as §1

monocytes = assay: Leukocyte differentiation and monocyte flow cytometry after endotoxin challenge; format: in vivo, human
Description: as §1
Whole blood samples were collected in pyrogen-free lithium-heparin tubes and then incubated for 10 min with 9 volumes ice-cold erythrocyte lysis buffer and centrifuged for 10 min at 4° C. Remaining cells were washed twice with ice-cold PBS. For flow cytometric analysis 0.5×10^6 cells were incubated in FACS buffer mixed with antibody. All reagents were titrated to obtain optimal results as recommended by the manufacturers. Cell surface staining was performed with Fluorescein Isothiocyanate (FITC) labelled mouse anti-human CD14 (IgG2a), anti-human Allophycocyanin (APC) labelled CD18 (IgG1) and Phycoerythrin (PE) labelled anti-human CD11b (IgG1) and CD62L (IgG1) (R&D Systems, San Jose, Calif., USA). Appropriate isotype control antibodies were used to correct for non-specific antibody binding. After staining, the cells were washed, fixed in 4% paraformaldehyde, and analyzed by flow cytometry using a FACS Calibur flow cytometer. Data were analyzed with CellQuest software (Becton Dickinson, Franklin Lakes, N.J., USA).

[7] = test system: thrombin generation and fibrinolysis; assay: Coagulation and fibrinolysis markers (prothrombin fragment F1+2, D-dimer) after endotoxin challenge; format: in vivo, human; settings: p<0.05
Description: as §1

O=[N+]([O-])OCC(CO[N+](=O)[O-])O[N+](=O)[O-] [nitroglycerine]
status of the glycocalyx (RBCW, glycocalyx width; FIGS. 5A and 5B) (endothelial glycocalyx [1]): a clear distinction between the status of the glycocalyx in treated and untreated subjects
effect on the glycocalyx as known (endothelial glycocalyx [2]): known to cause damage to the glycocalyx

Etanercept
body temperature ([3]; 4 hours after endotoxin infusion, from 36.6±0.5 at baseline, ns): 37.3±0.5 °C
heart rate ([3]; 4 hours after endotoxin infusion, from 62±4 at baseline, ns): 69±3
diastolic blood pressure ([3]; 4 hours after endotoxin infusion, from 69±6 at baseline, ns): 67±6 mm Hg
systolic blood pressure ([3]; 4 hours after endotoxin infusion, from 125±7 at baseline, ns): 123±10 mmHg
clinical symptoms of endotoxemia (chills, headache, myalgia, nausea) ([3]; after endotoxin infusion, saline versus Etanercept group, data not shown): more frequently and more intensive in the saline group compared to the Etanercept group
systemic glycocalyx volume (endothelial glycocalyx [4]; baseline 1.7±0.5, p<0.01): 1.1 ± 0.2 L
systemic Dextran 40 clearance rate (endothelial glycocalyx [4]; from 0.009±0.002 at baseline, ns): 0.009 ± 0.001 min⁻¹
haematocrit values (endothelial glycocalyx [4]; from 0.43±0.02 at baseline, ns): 0.42±0.02
circulating plasma volume (endothelial glycocalyx [4]; from 2.9±0.5 at baseline, ns): 2.8 ± 0.6 L
Dextran 40 distribution volume (endothelial glycocalyx [4]; from 4.6±0.6 at baseline, p<0.05): 3.9 ± 0.5 L
rate of Dextran 40 plasma clearance (FIG. 1B) (endothelial glycocalyx [4]; saline group versus Etanercept group): increased in the saline group as compared with Etanercept group
capillary density (number of capillaries per field) [5]: 43±15
plasma hyaluronidase activity, change compared to baseline (glycocalyx shedding; 4 hours after endotoxin infusion, ns): −8±14%
plasma heparan sulphate levels (glycocalyx shedding; 24 hours after endotoxin infusion, p<0.01 versus saline group): 7.4 ± 1.5 µg/mL
heparan sulphate plasma levels (glycocalyx shedding; during the 4 hours after endotoxin challenge, from 5.4±1.3, ns): 5.1 ± 1.0 µg/mL
plasma hyaluronan levels (glycocalyx shedding; within first hour after endotoxin infusion, from 58±13, p<0.05): 46 ± 10 ng/mL
number of circulating leukocytes compared to baseline ([6]; 4 hours after endotoxin, both treatment groups): doubled
plasma CRP ([6]; after endotoxin challenge, from 0.6±0.4 at baseline, p<0.01): 16.0 ± 3.4 mg/L
plasma IL-6 ([6]; after endotoxin challenge, from 4.6±3.1 at baseline, p<0.05): 127 ± 98 pg/mL
reduction of monocyte count (monocytes; 4 hours after endotoxin infusion, p<0.05 compared to baseline): 51±32%
change in percentage of CD62L+ (L-selectin) expressing monocytes (monocytes; 4 hours after endotoxin, p<0.05 versus saline group): +66±42%
CD14+ monocyte counts (monocytes; after endotoxin infusion, ns between groups): 26±13%
CD11b+/CD18+ (Mac-1 complex) monocyte count, median (monocytes; after endotoxin infusion, p<0.01 versus saline): 0.65±0.1
D-dimer ([7]; from 0.2±0.1 at baseline): 0.3 ± 0.1 mg/L
prothrombin activation fragment F1+2 ([7]; from 0.3±0.1 at baseline): 2.1 ± 0.9 nmol/L
